Measured values from article PMC7565091, “Synthesis and Inhibitory Studies of Phosphonic Acid Analogues of Homophenylalanine and Phenylalanine towards Alanyl Aminopeptidases” (Biomolecules, 2020).
Read-outs that look alike come from different tables or passages of the source.

Assays:
[1] = molecular target: T1, Recombinant human alanine aminopeptidase (hAPN, EC 3.4.11.2) (Homo sapiens, UniProt P15144); test: Fluorogenic (Ala-AMC) enzyme inhibition assay, hAPN; format: biochemical; conditions: for Ki: racemic compounds, substrate Ala-AMC 50 µM, 50 mM Tris-HCl pH 7.00, 37 °C
T1 construct: purchased R&D System (Minneapolis, MN)

[2] = molecular target: T2, porcine kidney alanine aminopeptidase (pAPN, EC 3.4.11.2) (Sus scrofa, UniProt P15145); test: Fluorogenic (Ala-AMC) enzyme inhibition assay, pAPN; format: biochemical; conditions: for Ki: racemic compounds, substrate Ala-AMC 100 µM, 50 mM Tris-HCl pH 7.20, 37 °C
T2 construct: porcine kidney alanine aminopeptidase (pAPN, EC 3.4.11.2); purchased Sigma Aldrich (Poznan, Poland); host or cells: porcine kidney (tissue-derived)
T2 sequence (P15145 1-963): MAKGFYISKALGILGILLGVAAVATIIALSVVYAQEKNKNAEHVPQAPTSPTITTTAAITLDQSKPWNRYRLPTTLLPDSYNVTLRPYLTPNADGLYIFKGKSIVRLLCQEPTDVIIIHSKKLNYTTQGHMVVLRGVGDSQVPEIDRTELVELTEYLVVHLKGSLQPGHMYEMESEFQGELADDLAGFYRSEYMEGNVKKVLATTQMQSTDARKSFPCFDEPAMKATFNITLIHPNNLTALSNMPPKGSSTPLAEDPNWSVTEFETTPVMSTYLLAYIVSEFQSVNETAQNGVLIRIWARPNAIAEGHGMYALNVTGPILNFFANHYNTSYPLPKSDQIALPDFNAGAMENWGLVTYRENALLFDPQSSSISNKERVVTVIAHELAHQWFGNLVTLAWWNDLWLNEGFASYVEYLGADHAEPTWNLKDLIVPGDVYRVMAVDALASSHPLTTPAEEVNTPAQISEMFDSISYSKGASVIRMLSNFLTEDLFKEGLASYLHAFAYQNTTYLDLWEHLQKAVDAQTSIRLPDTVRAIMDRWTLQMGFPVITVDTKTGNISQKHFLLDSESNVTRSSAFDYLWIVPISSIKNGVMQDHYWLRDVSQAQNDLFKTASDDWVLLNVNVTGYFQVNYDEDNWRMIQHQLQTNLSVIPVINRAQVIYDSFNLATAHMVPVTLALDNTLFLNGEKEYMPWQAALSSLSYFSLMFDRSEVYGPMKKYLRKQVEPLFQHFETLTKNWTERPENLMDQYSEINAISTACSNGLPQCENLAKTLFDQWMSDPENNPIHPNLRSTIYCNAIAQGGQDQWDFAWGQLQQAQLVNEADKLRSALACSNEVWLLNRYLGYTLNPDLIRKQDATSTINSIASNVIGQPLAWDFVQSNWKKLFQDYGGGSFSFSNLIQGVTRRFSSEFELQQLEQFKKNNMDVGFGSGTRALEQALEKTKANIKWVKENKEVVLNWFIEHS

[3] = molecular target: T1, Recombinant human alanine aminopeptidase (hAPN, EC 3.4.11.2); conditions: data from previous studies; cited from earlier work
[4] = molecular target: T2, porcine kidney alanine aminopeptidase (pAPN, EC 3.4.11.2); conditions: data from previous studies; cited from earlier work

T1 sequence (P15144 whole entry): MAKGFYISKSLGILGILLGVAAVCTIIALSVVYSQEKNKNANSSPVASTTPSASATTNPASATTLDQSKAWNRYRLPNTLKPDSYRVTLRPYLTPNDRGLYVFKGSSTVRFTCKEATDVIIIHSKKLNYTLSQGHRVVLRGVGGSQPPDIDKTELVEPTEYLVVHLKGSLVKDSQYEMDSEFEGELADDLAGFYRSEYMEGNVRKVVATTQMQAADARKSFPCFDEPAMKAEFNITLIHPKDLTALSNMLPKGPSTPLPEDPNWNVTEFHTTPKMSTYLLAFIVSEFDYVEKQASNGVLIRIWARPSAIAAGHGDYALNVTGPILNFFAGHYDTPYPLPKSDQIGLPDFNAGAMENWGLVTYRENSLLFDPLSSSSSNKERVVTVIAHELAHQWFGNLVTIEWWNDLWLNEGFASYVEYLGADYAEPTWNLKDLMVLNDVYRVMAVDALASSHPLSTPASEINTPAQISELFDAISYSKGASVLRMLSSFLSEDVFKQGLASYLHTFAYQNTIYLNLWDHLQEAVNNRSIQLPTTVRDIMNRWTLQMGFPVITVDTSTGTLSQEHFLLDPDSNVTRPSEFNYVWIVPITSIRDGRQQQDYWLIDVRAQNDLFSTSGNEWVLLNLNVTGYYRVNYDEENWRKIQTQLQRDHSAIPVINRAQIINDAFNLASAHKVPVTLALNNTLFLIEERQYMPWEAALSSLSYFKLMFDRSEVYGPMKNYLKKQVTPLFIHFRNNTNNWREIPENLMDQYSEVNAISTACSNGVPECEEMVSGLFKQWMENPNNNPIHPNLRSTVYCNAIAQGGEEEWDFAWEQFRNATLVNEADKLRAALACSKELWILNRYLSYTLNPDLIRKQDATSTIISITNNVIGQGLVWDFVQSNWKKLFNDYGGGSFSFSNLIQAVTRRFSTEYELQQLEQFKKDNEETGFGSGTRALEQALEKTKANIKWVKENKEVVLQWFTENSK

Molecule	Ki [1] [µM]	Ki [2] [µM]	melting point [°C]	other results
1-Amino-3-(2-Bromo-4-Fluorophenyl)ethylphosphonic Acid [Compound 17a]	14 ± 0.4	70 ± 6.6		
1-Amino-3-(4-Bromo-2-Fluorophenyl)ethylphosphonic Acid [Compound 17d]	7.36 ± 0.21	82.5 ± 2		
1-Amino-3-(4-Bromo-3-Fluorophenyl)ethylphosphonic Acid [Compound 17e]	0.67 ± 0.049	4.23 ± 0.44		
Cc1cc(=O)oc2cc(NC(=O)[C@H](C)N)ccc12 [Ala-AMC, L-alanine-4-methylcoumaryl-7-amide, reference compound]				Km ([1]; substrate constant, determined analogously to the literature [23], read-out: Km towards Ala-AMC, hAPN): 73 µM; Km ([2]; substrate constant, determined analogously to the literature [23], read-out: Km towards Ala-AMC, pAPN): 90 µM
NC(CCc1ccccc1F)P(=O)(O)O (stereo not shown) [Compound 15b, 1-Amino-3-(2-Fluorophenyl)propylphosphonic Acid]	0.506 ± 0.038	12.7 ± 0.8	292 to 294	
NC(CCc1cccc(F)c1)P(=O)(O)O (stereo not shown) [Compound 15c, 1-Amino-3-(3-Fluorophenyl)propylphosphonic Acid]	0.129 ± 0.025	2.63 ± 0.18	292 to 294	times better inhibitor than 15a ([1]; ratio of Ki values versus compound 15a, the text says both aminopeptidases, the factor matches hAPN): 5
NC(CCc1ccc(F)cc1)P(=O)(O)O (stereo not shown) [Compound 15d, 1-Amino-3-(4-Fluorophenyl)propylphosphonic Acid]	0.249 ± 0.025	1.69 ± 0.81	303 to 305	
NC(CCc1ccc(F)cc1F)P(=O)(O)O (stereo not shown) [Compound 15e, 1-Amino-3-(2,4-Difluorophenyl)propylphosphonic Acid]	0.661 ± 0.105	1.71 ± 0.46	304 to 306	
NC(CCc1ccc(F)c(F)c1)P(=O)(O)O (stereo not shown) [Compound 15f, 1-Amino-3-(3,4-Difluorophenyl)propylphosphonic Acid]	0.149 ± 0.011	1.02 ± 0.3	292 to 293	
NC(CCc1ccc(C(F)(F)F)cc1)P(=O)(O)O (stereo not shown) [Compound 15g, 1-Amino-3-(4-Trifluoromethylphenyl)propylphosphonic Acid]	0.347 ± 0.062	0.976 ± 0.099	295 to 296	
NC(CCc1ccccc1C(F)(F)F)P(=O)(O)O (stereo not shown) [Compound 15h, 1-Amino-3-(2-Trifluoromethylphenyl)propylphosphonic Acid]	0.804 ± 0.122	7.49 ± 0.58	244 to 246	
NC(Cc1cc(F)ccc1Br)P(=O)(O)O (stereo not shown) [Compound 17b]	41.7 ± 7.4	379 ± 126		
NC(Cc1ccc(F)c(Br)c1)P(=O)(O)O (stereo not shown) [Compound 17c, 1-Amino-3-(3-Bromo-4-Fluorophenyl)ethylphosphonic Acid]	0.248 ± 0.024	2.22 ± 0.14		
NC(Cc1ccc(Cl)cc1F)P(=O)(O)O (stereo not shown) [Compound 17o]				Ki [3]: 17.8 ± 2.09 µM; Ki [4]: 160 ± 11 µM
NC(Cc1ccc(Cl)c(F)c1)P(=O)(O)O (stereo not shown) [Compound 17s]				Ki [3]: 1.01 ± 0.16 µM; Ki [4]: 14.8 ± 0.9 µM
NC(Cc1ccc(F)c(Cl)c1)P(=O)(O)O (stereo not shown) [Compound 17t]				Ki [3]: 0.542 ± 0.152 µM; Ki [4]: 6.93 ± 0.78 µM
